ChEMBL document CHEMBL1201862, “PubChem BioAssay data set” (2004)
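Assay format: 96-well plates, 48-hour exposure. Here, GI50 denotes the concentration required for 50% inhibition of growth.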 Activity calls are given as the source filed them. Cut-off read from the data, not from the text of the source: active = GI50 up to about 1.1 µM and inactive = higher.

How the values were obtained:
Experiment in all cases: NCI tumour cell line growth inhibition, 48 h
HCC 2998 = tested on: HCC 2998
M19-MEL = tested on: M19-MEL
RXF 631 = tested on: RXF 631
BT-549 = tested on: BT-549
NCI/ADR-RES = tested on: NCI/ADR-RES
UACC-62 = tested on: UACC-62
OVCAR-3 = tested on: OVCAR-3
DU-145 = tested on: DU-145
MOLT-4 = tested on: MOLT-4
NCI-H226 = tested on: NCI-H226
DMS-273 = tested on: DMS-273
DLD-1 = tested on: DLD-1
CAKI-1 = tested on: CAKI-1
Hs-578T = tested on: Hs-578T
MDA-MB-231 = tested on: MDA-MB-231
MDA-MB-435 = tested on: MDA-MB-435
MCF7 = tested on: MCF7
LOX IMVI = tested on: LOX IMVI
LXFL 529 = tested on: LXFL 529
HOP-18 = tested on: HOP-18
OVCAR-4 = tested on: OVCAR-4
SNB-78 = tested on: SNB-78
DMS-114 = tested on: DMS-114
KM-20L2 = tested on: KM-20L2
PC-3 = tested on: PC-3
MDA-N = tested on: MDA-N
EKVX = tested on: EKVX
RPMI-8226 = tested on: RPMI-8226
NCI-H522 = tested on: NCI-H522
HCT-15 = tested on: HCT-15
A549 = tested on: A549
NCI-H23 = tested on: NCI-H23
ACHN = tested on: ACHN
OVCAR-8 = tested on: OVCAR-8
SN12C = tested on: SN12C
SK-OV-3 = tested on: SK-OV-3
OVCAR-5 = tested on: OVCAR-5
SF-295 = tested on: SF-295
786-0 = tested on: 786-0
A498 = tested on: A498
Malme-3M = tested on: Malme-3M
U-251 = tested on: U-251
SK-MEL-2 = tested on: SK-MEL-2
SW-620 = tested on: SW-620
HOP-92 = tested on: HOP-92
SF-268 = tested on: SF-268
SNB-75 = tested on: SNB-75
UACC-257 = tested on: UACC-257
SK-MEL-28 = tested on: SK-MEL-28
SNB-19 = tested on: SNB-19
SK-MEL-5 = tested on: SK-MEL-5
HCT-116 = tested on: HCT-116
CCRF-CEM = tested on: CCRF-CEM
UO-31 = tested on: UO-31
RXF 393 = tested on: RXF 393
NCI-H460 = tested on: NCI-H460
KM12 = tested on: KM12
K562 = tested on: K562
M14 = tested on: M14
SF-539 = tested on: SF-539
SR = tested on: SR
TK-10 = tested on: TK-10
HT-29 = tested on: HT-29
COLO 205 = tested on: COLO 205
HL-60 = tested on: HL-60
HOP-62 = tested on: HOP-62
IGROV-1 = tested on: IGROV-1

## O=C1/C(=C/c2ccc(Cl)c(Cl)c2)CN(C(=O)CCN2CCOCC2)C/C1=C\c1ccc(Cl)c(Cl)c1
HCC 2998
  GI50: 2.09 µM (inactive)
M19-MEL
  GI50: 1.64 µM (inactive)
RXF 631
  GI50: 2.94 µM (inactive)
BT-549
  GI50: 0.0169 µM (active)
NCI/ADR-RES
  GI50: 0.0043 µM (active)
UACC-62
  GI50: 1.71 µM (inactive)
OVCAR-3
  GI50: 0.00454 µM (active)
DU-145
  GI50: 0.0373 µM (active)
MOLT-4
  GI50: 0.00283 µM (active)
NCI-H226
  GI50: 2.04 µM (inactive)
DMS-273
  GI50: 1.12 µM (inactive)
DLD-1
  GI50: 0.182 µM (active)
CAKI-1
  GI50: 1.51 µM (inactive)
Hs-578T
  GI50: 7.76 µM (inactive)
MDA-MB-231
  GI50: 0.00286 µM (active)
MDA-MB-435
  GI50: 0.0121 µM (active)
MCF7
  GI50: 0.0184 µM (active)
LOX IMVI
  GI50: 0.00217 µM (active)
LXFL 529
  GI50: 1.56 µM (inactive)
HOP-18
  GI50: 2.55 µM (inactive)
OVCAR-4
  GI50: 0.00395 µM (active)
SNB-78
  GI50: 2.66 µM (inactive)
DMS-114
  GI50: 0.746 µM (active)
KM-20L2
  GI50: 1.38 µM (inactive)
PC-3
  GI50: 0.00331 µM (active)
MDA-N
  GI50: 0.0145 µM (active)
EKVX
  GI50: 2.4 µM (inactive)

## O=C(CC1(O)C(=O)Nc2c(Cl)cc(Cl)cc21)c1ccc(Br)cc1 (stereo not given)
HCC 2998
  GI50: 39.5 µM (inactive)
M19-MEL
  GI50: 7.76 µM (inactive)
RXF 631
  GI50: 12.4 µM (inactive)
RPMI-8226
  GI50: 13 µM (inactive)
NCI-H522
  GI50: 16.6 µM (inactive)
HCT-15
  GI50: 35 µM
UACC-62
  GI50: 9.08 µM (inactive)
OVCAR-3
  GI50: 14.1 µM (inactive)
A549
  GI50: 20.7 µM (inactive)
NCI-H23
  GI50: 14 µM (inactive)
ACHN
  GI50: 15.3 µM (inactive)
OVCAR-8
  GI50: 33.8 µM (inactive)
SN12C
  GI50: 33.1 µM (inactive)
SK-OV-3
  GI50: 27 µM (inactive)
MOLT-4
  GI50: 22.1 µM (inactive)
NCI-H226
  GI50: 14.9 µM (inactive)
OVCAR-5
  GI50: 17.2 µM (inactive)
SF-295
  GI50: 29.5 µM (inactive)
786-0
  GI50: 13.2 µM (inactive)
A498
  GI50: > 49.2 µM (inactive)
DMS-273
  GI50: 13.5 µM (inactive)
Malme-3M
  GI50: > 41.3 µM (inactive)
U-251
  GI50: 13.4 µM (inactive)
SK-MEL-2
  GI50: > 41.1 µM (inactive)
SW-620
  GI50: 26.9 µM (inactive)
HOP-92
  GI50: 15.7 µM (inactive)
SF-268
  GI50: 16.4 µM (inactive)
DLD-1
  GI50: 13.2 µM (inactive)
CAKI-1
  GI50: 16.1 µM (inactive)
SNB-75
  GI50: 17.1 µM (inactive)
UACC-257
  GI50: 29.4 µM (inactive)
SK-MEL-28
  GI50: 19.7 µM (inactive)
SNB-19
  GI50: 16.3 µM (inactive)
SK-MEL-5
  GI50: 16.9 µM (inactive)
HCT-116
  GI50: 17.5 µM (inactive)
CCRF-CEM
  GI50: 14.9 µM (inactive)
UO-31
  GI50: 12.9 µM (inactive)
RXF 393
  GI50: 16 µM (inactive)
LOX IMVI
  GI50: 22.5 µM (inactive)
NCI-H460
  GI50: 38.6 µM (inactive)
KM12
  GI50: 15.2 µM (inactive)
K562
  GI50: 24.5 µM (inactive)
M14
  GI50: 17.6 µM (inactive)
SF-539
  GI50: 16.3 µM (inactive)
SR
  GI50: 19.8 µM (inactive)
TK-10
  GI50: 17.6 µM (inactive)
LXFL 529
  GI50: > 37.9 µM (inactive)
HOP-18
  GI50: 15.7 µM (inactive)
HT-29
  GI50: 37.7 µM (inactive)
OVCAR-4
  GI50: 12.4 µM (inactive)
COLO 205
  GI50: > 40.7 µM (inactive)
SNB-78
  GI50: 19.1 µM (inactive)
DMS-114
  GI50: 20.6 µM (inactive)
KM-20L2
  GI50: 16.8 µM (inactive)
HL-60
  GI50: 4.3 µM (inactive)
HOP-62
  GI50: 20.2 µM (inactive)
IGROV-1
  GI50: 18.2 µM (inactive)
EKVX
  GI50: 15.2 µM (inactive)
